Results from the NIST ThermoML archive (doi:10.1021/je500093z).
Numbers after ± are expanded uncertainties.

Experiments:
[1] = refractive index (Na D-line) (dimensionless); conditions: 101.33 kPa, Liquid, Standard Abbe refractometry
[2] = for surface tension liquid-gas: Ring tensiometer; for viscosity / speed of sound / mass density: 101.33 kPa, Liquid; for speed of sound: Pulse-echo method; for mass density: Vibrating tube method

## CCCC[n+]1ccc(C)cc1.F[B-](F)(F)F [1-butyl-4-methylpyridinium tetrafluoroborate]
[1]; 298.15 K
  refractive index: 1.4507 ± 0.001
[1]; 303.15 K
  refractive index: 1.4502 ± 0.001
[1]; 308.15 K
  refractive index: 1.4495 ± 0.001
[1]; 313.15 K
  refractive index: 1.4488 ± 0.001
[1]; 318.15 K
  refractive index: 1.4482 ± 0.001
[1]; 323.15 K
  refractive index: 1.4475 ± 0.001
[1]; 328.15 K
  refractive index: 1.4469 ± 0.001
[1]; 333.15 K
  refractive index: 1.4463 ± 0.001
[2]; 298.15 K
  surface tension liquid-gas: 45.4 ± 0.9 mN/m
  viscosity: 202.86 ± 16 mPa·s
  speed of sound: 1602.3 ± 3.1 m/s
  mass density: 1190 ± 3 kg/m3
[2]; 303.15 K
  surface tension liquid-gas: 45.1 ± 0.9 mN/m
  viscosity: 146.57 ± 8.8 mPa·s
  speed of sound: 1589.7 ± 3.1 m/s
  mass density: 1186 ± 3 kg/m3
[2]; 308.15 K
  surface tension liquid-gas: 44.8 ± 0.9 mN/m
  viscosity: 108.7 ± 4.9 mPa·s
  speed of sound: 1577.4 ± 3.1 m/s
  mass density: 1183 ± 3 kg/m3
[2]; 313.15 K
  surface tension liquid-gas: 44.5 ± 0.9 mN/m
  viscosity: 82.49 ± 2.6 mPa·s
  speed of sound: 1565.2 ± 3.1 m/s
  mass density: 1179 ± 3 kg/m3
[2]; 318.15 K
  surface tension liquid-gas: 44.2 ± 0.9 mN/m
  viscosity: 63.94 ± 1.3 mPa·s
  speed of sound: 1553.2 ± 3.1 m/s
  mass density: 1176 ± 3 kg/m3
[2]; 323.15 K
  surface tension liquid-gas: 43.9 ± 0.9 mN/m
  viscosity: 50.51 ± 0.76 mPa·s
  speed of sound: 1541.2 ± 3.1 m/s
  mass density: 1173 ± 3 kg/m3
[2]; 328.15 K
  surface tension liquid-gas: 43.5 ± 0.9 mN/m
  viscosity: 40.6 ± 0.8 mPa·s
  speed of sound: 1529.6 ± 3.1 m/s
  mass density: 1169 ± 3 kg/m3
[2]; 333.15 K
  surface tension liquid-gas: 43.2 ± 0.9 mN/m
  viscosity: 33.14 ± 0.66 mPa·s
  speed of sound: 1517.9 ± 3.1 m/s
  mass density: 1166 ± 3 kg/m3
